# Source: article PMC5024298, “The coiled-coil domain of zebrafish TRPM7 regulates Mg·nucleotide sensitivity” (Scientific Reports, 2016)
# “And” between values parts separate entries of the source, which are not always exact repeats. Equal values may be shown once. Read-outs that look alike come from different tables or passages of the source.
# Key:
# [1] = test system: zebrafish TRPM7 (drTRPM7) wild type; assay: Whole-cell patch-clamp of tetracycline-induced HEK293 T-REx cells overexpressing wild type drTRPM7; format: cell-based, zebrafish (Danio rerio); settings: for effect of extracellular divalent application on monovalent outward currents: 10 mM divalent replacing 10 mM Ca^2+, NMDG external solution; for Biophysical characteristic: effect on drTRPM7 (Table 1): heterologous drTRPM7; for IC50: 200 s
# Description: (§1) HEK293 T-REx cells stably expressing HA-tagged Danio rerio TRPM7 (drTRPM7) wild type or mutants were cultured in DMEM with 10% FBS and 5 μg/ml of blasticidin and 200 μg/ml hygromycin. HEK293 T-REx cells were incubated at 37 °C and 5% CO2. Expression was induced by adding 1 μg/ml tetracycline to the growth media 20 hours before experiments. […] Chicken DT40 wild type and DT40 cells with a TRPM7 […] (DT40 TRPM7-KO) cells were maintained as described before.
# (§2) Patch-clamp experiments were performed in the tight-seal whole-cell configuration at room temperature (20–25 °C). Whole-cell currents were recorded with the EPC9 (HEKA, Bellmore, NY) and Patchmaster v2.4 (HEKA). Voltages were corrected for a liquid junction potential of 10 mV. The patch pipettes were pulled from borosilicate glass (Sutter Instruments, USA) with resistances of 2.5–3.5 MΩ when filled with internal solution. The voltage ramp protocol ranged from −100 mV to 100 mV over 50 ms and applied at 0.5 Hz. Current amplitudes were measured at −80 mV and +80 mV. The holding potential was set to 0 mV in all experiments. Currents were filtered at 2.9 kHz and digitized at 10 kHz. Cells were seeded on glass cover slips 1–2 days before the day of the experiment. Cover slips were submerged in the external solution at room temperature (20–25 °C). Cover slips and external solutions were replaced every hour.
# The standard external solution contained (in mM): 140 NaCl, 2.8 KCl, 2 MgCl2, 11 glucose, 10 HEPES, and 1 CaCl2. The divalent profile experiments were performed using a modified external solution that contained (in mM): 140 N-methyl-D-glucamine (NMDG), 11 glucose, 10 HEPES and 10 CaCl2. For application, 10 mM CaCl2 was replaced with 10 mM of the respective divalent under study. The standard internal solution contained (in mM): 140 Cs-glutamate, 8 NaCl, 10 HEPES, and 10 Cs-BAPTA. pH was adjusted to 7.2 and osmolarity was kept between 290–330 mOsm. The solutions for pH below 6.0 contained (in mM): 140 NaCl, 2.8 KCl, 2 MgCl2, 11 glucose, 10 MES, and 1 CaCl2. For the Mg·ATP dose-response analysis, the internal solution contained (in mM): 120 Cs-glutamate, 8 NaCl, 10 HEPES, 10 Cs-BAPTA. Na·ATP and MgCl2 was used to achieve appropriate concentrations of free intracellular Mg^2+ and Mg·ATP as calculated using WebmaxC Standard (http://www.stanford.edu/~cpatton/webmaxcS.htm).
# Statistical analysis was performed using Fitmaster (version 2.69; HEKA, Germany) and Igor software (version 6.34; WaveMetrics, USA). The p-values were calculated using Microsoft Excel version 14.1.2 using the two-tailed paired Student’s T-test. Data were normalized to cell size and expressed as current density (pA/pF), or normalized to the time point right before application (I/I[time]s). […] Dose-response fits were assessed using the fit function f(x) = ([Maximum current] *(1/(1 + ([Estimated IC50]/x)^[Hill coefficient])). The IC50 or EC50 values calculated with the dose-response curve function were reported with ± standard deviation (S.D.).
# To study channel biophysics, HA-tagged wild type zebrafish TRPM7 (drTRPM7) was cloned and stably expressed in HEK293 T-REx cells under tetracycline-inducible promotor (see methods; ref. [3]). […] Both clones were also tested for drTRPM7 expression using the whole-cell patch-clamp technique.
# [2] = test system: endogenous TRPM7-like currents in ZFL cells; assay: Whole-cell patch-clamp of endogenous TRPM7-like currents in zebrafish liver cell line ZFL; format: cell-based
# Description: as §1, §2
# [3] = test system: Mammalian TRPM7; settings: cited from earlier work
# [4] = test system: Human TRPM6; settings: cited from earlier work
# [5] = test system: human TRPM7 (hTRPM7); settings: cited from earlier work
# [6] = test system: drTRPM7-1478; assay: Whole-cell patch-clamp of HEK293 T-REx cells overexpressing truncation mutant drTRPM7-1478; format: cell-based, zebrafish (Danio rerio); settings: +80 mV, 200 s; Hill = 2, 1.5 (Fig. 6 legend); read-out: IC50 of internal Mg^2+
# Description: Patch-clamp experiments were performed in the tight-seal whole-cell configuration at room temperature (20–25 °C). Whole-cell currents were recorded with the EPC9 (HEKA, Bellmore, NY) and Patchmaster v2.4 (HEKA). Voltages were corrected for a liquid junction potential of 10 mV. […] Current amplitudes were measured at −80 mV and +80 mV. […]
# (§3) The standard external solution contained (in mM): 140 NaCl, 2.8 KCl, 2 MgCl2, 11 glucose, 10 HEPES, and 1 CaCl2. […] Na·ATP and MgCl2 was used to achieve appropriate concentrations of free intracellular Mg^2+ and Mg·ATP as calculated using WebmaxC Standard (http://www.stanford.edu/~cpatton/webmaxcS.htm).
# [7] = test system: drTRPM7-1258; assay: Whole-cell patch-clamp of HEK293 T-REx cells overexpressing truncation mutant drTRPM7-1258; format: cell-based, zebrafish (Danio rerio)
# Description: (§4) Patch-clamp experiments were performed in the tight-seal whole-cell configuration at room temperature (20–25 °C). Whole-cell currents were recorded with the EPC9 (HEKA, Bellmore, NY) and Patchmaster v2.4 (HEKA). Voltages were corrected for a liquid junction potential of 10 mV. The patch pipettes were pulled from borosilicate glass (Sutter Instruments, USA) with resistances of 2.5–3.5 MΩ when filled with internal solution. The voltage ramp protocol ranged from −100 mV to 100 mV over 50 ms and applied at 0.5 Hz. Current amplitudes were measured at −80 mV and +80 mV. The holding potential was set to 0 mV in all experiments. Currents were filtered at 2.9 kHz and digitized at 10 kHz. Cells were seeded on glass cover slips 1–2 days before the day of the experiment. […]
# as §3
# [8] = test system: drTRPM7-1178; assay: Whole-cell patch-clamp of HEK293 T-REx cells overexpressing truncation mutant drTRPM7-1178; format: cell-based, zebrafish (Danio rerio)
# Description: as §4, §3
# [9] = 1 mM intracellular Mg·ATP, 250 μM free Mg^2+
smiles,measurement,setting,value
[Ni+2] [nickel],effect of extracellular divalent application on monovalent outward currents,[1]; +80 mV,almost completely suppressed
[Ba+2] [barium],effect of extracellular divalent application on monovalent outward currents,[1]; +80 mV,facilitated outward currents
[Co+2] [cobalt],effect of extracellular divalent application on monovalent outward currents,[1]; +80 mV,almost completely suppressed
"NCCOB(c1ccccc1)c1ccccc1 [2-APB, 2-aminoethyl diphenylborinate, reference compound]",effect of 2-APB on drTRPM7 currents,[1]; concentrations of 300 μM and above,greatly enhanced
same,Biophysical characteristic: effect on drTRPM7 (Table 1),[1],Potentiation
same,effect of 2-APB on drTRPM7 currents,[1]; lower concentrations (30 μM and 100 μM),small but statistically not significant inhibitory effect
same,effect of 2-APB on drTRPM7 currents,"[1]; various concentrations, up to 500 μM, external application",facilitated rather than inhibited
same,facilitation of inward and outward drTRPM7-like currents,[2]; 500 μM 2-APB applied at 400 s,50%
same,effect of 2-APB on mammalian TRPM7,[3]; Table 1,Inhibition[12]
same,effect of 2-APB on human TRPM6,[4]; Table 1,Potentiation[12]
same,effect on human TRPM6 currents,[4],enhances
same,effect of 2-APB on hTRPM7 currents,[5],inhibits
[Cd] [cadmium],effect of extracellular divalent application on monovalent outward currents,[1]; +80 mV,facilitated outward currents
[Sr+2] [strontium],effect of extracellular divalent application on monovalent outward currents,[1]; +80 mV,facilitated outward currents
"[Mg+2] [Mg^2+, magnesium]",effect of extracellular divalent application on monovalent outward currents,[1]; +80 mV,almost completely suppressed
same,IC50,"[1]; current at +80 mV, Hill coefficient 1, read-out: IC50 of intracellular free Mg^2+ on drTRPM7 currents",778 µM
same,IC50,[6],450 ± 0.55 µM
same,IC50,"[7]; +80 mV, 200 s, Hill = 2, read-out: IC50 of internal Mg^2+",250 ± 0.52 µM
same,IC50,"[8]; +80 mV, 200 s, Hill = 3, read-out: IC50 of internal Mg^2+",840 ± 158 µM
same,effect of intracellular free Mg^2+ on drTRPM7-like current development,[2]; 3.2 mM free Mg^2+ in pipette solution,completely suppressed
same,IC50,"[3]; Table 1, read-out: IC50 of Mg^2+ on mammalian TRPM7",720 µM
same,IC50,[3]; read-out: IC50 of intracellular Mg^2+ on heterologous and/or native mouse and human TRPM7,~750 µM
same,IC50,"[4]; Table 1, read-out: IC50 of Mg^2+ on human TRPM6",29 µM
"C=C1CC/C=C(\C)CC[C@@H]2C([C@H](C/C=C(\C)COC(C)=O)OC(C)=O)=CO[C@H](OC(C)=O)[C@@H]12 [Waixenicin A, reference compound]",effect of waixenicin A on drTRPM7 currents,"[1]; 10 μM waixenicin A, 410 μM internal free Mg / 780 μM free Mg^2+ (Fig. 4 legend)",no effect
same,Biophysical characteristic: effect on drTRPM7 (Table 1),[1],No effect
same,effect of waixenicin A on mammalian TRPM7,[3]; Table 1,Inhibition[13]
same,effect on human TRPM6 currents,[4],No effect[14]
same,effect on human TRPM6 currents,[4]; listed as waixenicin A,no significant effect
"Nc1ncnc2c1ncn2[C@@H]1O[C@H](COP(=O)(O)OP(=O)([O-])OP(=O)([O-])O)[C@@H](O)[C@H]1O.[Mg+2] [Mg·ATP, Mg·adenosine triphosphate]",IC50,"[1]; internal free Mg^2+ 250 μM, +80 mV, Hill coefficient 1, read-out: IC50 of intracellular Mg·ATP on drTRPM7 currents",1160 µM and 1200 µM
same,IC50,"[1]; internal free Mg^2+ 250 μM, +80 mV, Hill coefficient set to 1, read-out: IC50 of intracellular Mg·ATP on drTRPM7 currents (Fig. 1E legend)",1160 ± 700 µM
same,effect of Mg·ATP on drTRPM7-1258 currents,[7]; [9],fully inhibited
same,sensitivity to intracellular Mg·ATP of drTRPM7-1258 compared to drTRPM7-1478 and wild type,[7]; ratio of IC50 values,about 4 fold
same,effect of Mg·ATP on drTRPM7-1178 currents,[8]; [9],did not seem to have any effect
same,sensitivity of drTRPM7-1178 currents to intracellular Mg·ATP,"[8]; up to 6 mM Mg·ATP, 250 μM free Mg^2+",completely lost any sensitivity
same,IC50,"[3]; Table 1, read-out: IC50 of Mg·ATP on mammalian TRPM7",2000 µM
same,effect on human TRPM6 currents,[4],No effect[14]
